The record followed here is patent publication US20130184320A1, “Imine Compounds” (BASF SE, priority 2010, published 2013).

Common to all, as to type: in vivo
The subject of one data set is Aphis craccivora. In words: B.2 Cowpea aphid spray test on potted cowpea plants. The conditions noted are these: sprayed plants, assessed after 24, 72 and 120 hours, read-out: mortality in comparison with untreated controls. The protocol:
B.2 Cowpea Aphid (Aphis craccivora)
Potted cowpea plants colonized with approximately 100-150 aphids of various stages were sprayed after the pest population had been recorded. Population reduction was assessed after 24, 72, and 120 hours.

The next data set concerns Plutella xylostella. In words: B.3 Diamond back moth leaf dip test on Chinese cabbage. The following applies: foliar, recorded 24, 72 and 120 hours after treatment, read-out: mortality in comparison with untreated controls. Here is the method: B.3 Diamond Back Moth (Plutella xylostella)
Leaves of Chinese cabbage were dipped in test solution and air-dried. Treated leaves were placed in petri dished lined with moist filter paper. Mortality was recorded 24, 72, and 120 hours after treatment.

For the next data set, the system named is Myzus persicae. The data set can be described thus: B.4 Green peach aphid systemic test, artificial diet in 96-well plates. The conditions noted are these: 72 h, 3 days, read-out: mortality in comparison with untreated controls. From the text:
B.4 Green Peach Aphid (Myzus persicae)
For evaluating control of green peach aphid (Myzus persicae) through systemic means the test unit consisted of 96-well-microtiter plates containing liquid artificial diet under an artificial membrane.
The compounds were formulated using a solution containing 75% v/v water and 25% v/v DMSO. Different concentrations of formulated compounds were pipetted into the aphid diet, using a custom built pipetter, at two replications.
After application, 5-8 adult aphids were placed on the artificial membrane inside the microtiter plate wells. The aphids were then allowed to suck on the treated aphid diet and incubated at about 23±1° C. and about 50±5% relative humidity for 3 days. Aphid mortality and fecundity was then visually assessed.

Another data set has as its system Ceratitis capitata. The data set can be described thus: B.5 Mediterranean fruitfly microtiter plate diet test. The conditions noted are these: 120 h, Mediterranean fruitfly eggs and larvae on diet, 5 days, read-out: mortality in comparison with untreated controls. Here is the method:
B.5 Mediterranean Fruitfly (Ceratitis capitata)
For evaluating control of Mediterranean fruitfly (Ceratitis capitata) the test unit consisted of microtiter plates containing an insect diet and 50-80 C. capitata eggs.
The compounds were formulated using a solution containing 75% v/v water and 25% v/v DMSO. Different concentrations of formulated compounds were sprayed onto the insect diet at 5 μl, using a custom built micro atomizer, at two replications.
(§1) After application, microtiter plates were incubated at about 28±1° C. and about 80±5% relative humidity for 5 days. Egg and larval mortality was then visually assessed.

The next data set concerns Dichromothrips corbetti. The data set can be described thus: B.6 Orchid thrips floral-immersion test. The conditions noted are these: 96 h, orchid thrips adults, 4 days, read-out: mortality in comparison with untreated controls. Here is the method:
B.6 Orchid Thrips (dichromothrips corbetti)
Dichromothrips corbetti adults used for bioassay were obtained from a colony maintained continuously under laboratory conditions. For testing purposes, the test compound was diluted to a concentration of 500 ppm (wt compound: vol diluent) in a 1:1 mixture of acetone:water (vol:vol), plus 0.01% vol/vol Kinetic® surfactant.
Thrips potency of each compound was evaluated by using a floral-immersion technique. Plastic petri dishes were used as test arenas. All petals of individual, intact orchid flowers were dipped into treatment solution and allowed to dry. Treated flowers were placed into individual petri dishes along with 10-15 adult thrips. The petri dishes were then covered with lids. All test arenas were held under continuous light and a temperature of about 28° C. for duration of the assay. After 4 days, the numbers of live thrips were counted on each flower, and along inner walls of each petri dish. The level of thrips mortality was extrapolated from pre-treatment thrips numbers.

The next data set deals with Heliothis virescens. In words: B.11 Tobacco budworm I microtiter plate diet test. The conditions noted are these: 120 h, tobacco budworm eggs and larvae on diet, 5 days, read-out: mortality in comparison with untreated controls. The protocol:
B.11 Tobacco Budworm (Heliothis virescens) I
For evaluating control of tobacco budworm (Heliothis virescens) the test unit consisted of 96-well-microtiter plates containing an insect diet and 15-25 H. virescens eggs.
The compounds were formulated using a solution containing 75% v/v water and 25% v/v DMSO. Different concentrations of formulated compounds were sprayed onto the insect diet at 10 μl, using a custom built micro atomizer, at two replications.
as §1

The subject of the next data set is Anthonomus grandis. In words: B.12 Boll weevil microtiter plate diet test. The conditions noted are these: 120 h, boll weevil eggs and larvae on diet, 5 days, read-out: mortality in comparison with untreated controls. The protocol:
B.12 Boll Weevil (Anthonomus grandis)
For evaluating control of boll weevil (Anthonomus grandis) the test unit consisted of 24-well-microtiter plates containing an insect diet and 20-30 A. grandis eggs.
The compounds were formulated using a solution containing 75% v/v water and 25% v/v DMSO. Different concentrations of formulated compounds were sprayed onto the insect diet at 20 μl, using a custom built micro atomizer, at two replications.
After application, microtiter plates were incubated at about 23±1° C. and about 50±5% relative humidity for 5 days. Egg and larval mortality was then visually assessed.

The test system of a further data set is bemisia argentifolii. In words: B.8 Silverleaf whitefly spray test on cotton plants. The conditions noted are these: 300 ppm; silverleaf whitefly adults on sprayed cotton; 3 days. The source says:
B.8 Silverleaf Whitefly (bemisia argentifolii)
The active compounds were formulated in cyclohexanone as a 10,000 ppm solution supplied in tubes. The tubes were inserted into an automated electrostatic sprayer equipped with an atomizing nozzle and they served as stock solutions for which lower dilutions were made in 50% acetone:50% water (v/v). A nonionic surfactant (Kinetic®) was included in the solution at a volume of 0.01% (v/v).
Cotton plants at the cotyledon stage (one plant per pot) were sprayed by an automated electrostatic plant sprayer equipped with an atomizing spray nozzle. The plants were dried in the sprayer fume hood and then removed from the sprayer. Each pot was placed into a plastic cup and about 10 to 12 whitefly adults (approximately 3-5 days old) were introduced. The insects were collected using an aspirator and a nontoxic Tygon® tubing connected to a barrier pipette tip. The tip, containing the collected insects, was then gently inserted into the soil containing the treated plant, allowing insects to crawl out of the tip to reach the foliage for feeding. Cups were covered with a reusable screened lid. […] Mortality was assessed 3 days after treatment, compared to untreated control plants.

`O=C(NCC(F)(F)F)N/N=C/c1ccc(N2CC(c3cc(Cl)cc(Cl)c3)(C(F)(F)F)OC2=O)cc1Cl` (centres unmarked) [Compound 3-1, 1-[(E)-[2-chloro-4-[5-(3,5-dichlorophenyl)-2-oxo-5-(trifluoromethyl)oxazolidin-3-yl]phenyl]methyleneamino]-3-(2,2,2-trifluoroethyl)urea]: the mortality at 500 ppm with Aphis craccivora, in the data set on Plutella xylostella and with Dichromothrips corbetti was at least 75% each time. For the same molecule, the mortality at 2500 ppm in the data set on Myzus persicae, in the data set with Ceratitis capitata, with Heliothis virescens and with Anthonomus grandis was at least 75% in each case.

On to `CNC(=O)NN=Cc1ccc(N2CCC(c3cc(Cl)cc(Cl)c3)(C(F)(F)F)C2)cc1Cl` (centres unmarked) [Compound 2-4], for which the “mortality in comparison with untreated controls” value with bemisia argentifolii is given as “at least 75%”.
